From US10759754B2, “Aminobenzoic acid derivatives for use as anti-inflammatory agents, anti-metastatic agents and/or anticancer agents” (3R VALO, S.E.C., priority 2016, dated 2020)
“Also recorded” adds a separate entry of the source.

Legend:
MHC-II = experiment: Flow cytometry of MHC-II surface antigen in IFNγ-activated human macrophages; assay type: cell-based; conditions: compound 4 at 10 μM, compound 5 at 25 μM
Procedure: Surface antigen expression analysis. To study membrane receptor expression, THP1-derived human macrophages (750×10^4 cells/mL) were pretreated for 3 h with DMSO or compounds 4 and 5, and then left untreated (control) or treated for 48 h with 50 U/mL IFNγ. The expression level of MHC-II and CD40 was evaluated by flow cytometry as described.^21-23

MB49-I cells = experiment: Relative cell viability of MB49-I cells 24-hour post treatment; assay type: cell-based, murine; conditions: 3 h treatment, 0-50 μM
Procedure: Evaluation of cell proliferation by the MTT assay. […] Cells were pretreated for a period of 3 h with vehicle (DMSO) or derivatives 1 and 1A at 0, 10, 25, 37.5, and 50 μM, and then incubated for 24 h in the absence or the presence of INFγ and TNFα. At the end of the culture period, 10 μL of 5 mg/mL methylthiazolyldiphenyl-tetrazolium bromide (MTT) solution was added to each well. After a 3-h incubation period with MTT reagent, 100 μL of MTT solubilization buffer (10% SDS in 10 mM HCl) was added and plates were placed overnight in the cell incubator before absorbance measure. The optical density was read at 580 nm using the Microplate Reader Manager (from Bio-Rad Laboratories).

[1] = system: TNFα/NFκB signaling pathway; experiment: Western blot of TNFα/NFκB signaling in MB49-I cells; assay type: cell-based, murine; conditions: doses as lower as 10 μM
Procedure: Cell signaling studies: THP1-derived human macrophages (750×10^3 cells/mL) and MB49-I cells (500×10^3 cells/mL) were pretreated for 30 min with vehicle (DMSO), compounds 4 and 5, at 10, 25 or 50 μM; and then washed and recovered immediately (t=0 min) or after 30 min of activation with 50 U/mL IFNγ, 25 ng/mL IL6, or 10 ng/mL TNFα. Cell lysates were prepared and analyzed by immunoblotting as described.^21-23,25 Briefly, protein samples were resolved by SDS-PAGE under reducing conditions and transferred onto a PVDF membrane. Blots were first probed with rabbit polyclonal antibodies against phospho-STAT1 (pSTAT1), pSTAT3, or p-IκB (all at 1:2000) overnight at 4° C. Blots were then incubated with HRP-conjugated goat anti-rabbit IgG Ab (1:3000) for 1 h at room temperature. The same blots were stripped and then probed with anti-STAT1 or anti-STAT3 Abs (both at 1:1000). In both cases, probed molecules were visualized using an enhancement chemiluminescence detection kit (Thermo Fisher Scientific).

NFκB = experiment: NFκB-responsive luciferase assay in MB49-I cells; assay type: cell-based, murine; conditions: 50 μM
From the text: Luciferase assay. To assess the transcriptional activity of NFκB in response to TNFα, MB49-I cells cultured in monolayers (7.5×10^4 cells/well in 24-well plates) were transiently transfected with an expression vector allowing the transcription of the firefly luciferase reporter gene under the control of CMV promoter and tandem repeats of the NFκB transcriptional response element. The luciferase gene encodes a 61-kDa enzyme that oxidizes D-luciferin in the presence of ATP, oxygen, and Mg^++, yielding a […] product that can be quantified by measuring the released light. Transfection was performed using Opti-MEM reduced serum media and Lipofectamine 2000 (Thermo Fisher Scientific). Then, MB49-I cells were pretreated for 30 min with vehicle (DMSO) and compound 4 (at 10 μM or 30 μM); and then washed and recovered after 24 h of activation with 10 ng/mL or 50 ng/mL TNFα. Cell lysates were mixed with Luciferase assay reagent (a mixture of luciferine, coenzyme A, ATP and Mg^2+) and the light produced was measured using a luminometer.

## CC(C)(C)OC(=O)NNC(=O)c1ccc(N2C(=O)C=CC2=O)cc1 [Compound 4, N′-[4-(2,5-dioxo-2,5-dihydro-pyrrol-1-yl)-benzoyl]-hydrazine carboxylic acid tert-butyl ester]
MHC-II
  IFNγ-induced MHC-II expression: effective in reducing; also recorded: efficiently inhibited
MB49-I cells
  relative cell viability / cell survival: stopping cell proliferation
[1]
  TNFα/NFκB signaling pathway (Western blot): inhibit; also recorded: efficiently inhibited
NFκB
  NFκB activation (luciferase assay): efficiently inhibited
